Literature values as cited in patent US20160022623A1, “COMPOSITION AND USE” (THE UNIVERSITY OF NOTTINGHAM, priority 2013, published 2016).

How the values were obtained:
[1] = 24 weeks
[2] = compared to control (euglycaemic hyperinsulinaemia)
[3] = morning following the clamp, overnight fast

For `C[N+](C)(C)C[C@H](O)CC(=O)[O-]` [L-carnitine], the “Decrease in insulin stimulated muscle PDC activation” value [2] is listed as 30%, the “Decrease in muscle lactate accumulation” value [2] is listed as 40% and the “Increase in skeletal muscle total carnitine content” value (intravenous infusion, 6 h clamp, at rest) is listed as 15%. The “Increase in muscle glycogen content” value [3] was 30%, the “Increase in muscle long-chain acyl-CoA content” value [3] was 40% and the “Increase in muscle total carnitine content compared to carbohydrate feeding alone” value ([1]; 1.36 g L-carnitine with 80 g carbohydrate beverage twice daily) was 30%. The “Reduction in muscle glycogen utilisation” value ([1]; low intensity exercise (50% VO2max)) was 50% and the “Increase in muscle free carnitine availability” value ([1]; low intensity exercise (50% VO2max), vs Control) was 80%.
